Where a SMILES comes first, the peptide text is derived from it. [ ]: non-standard residue; d: D form. Cha = N[C@@H](CC1CCCCC1)C(=O)O
Experiments:
HLA-A*0201 [1] = biological target: T1, HLA-A*0201 (Homo sapiens, UniProt P04439, D140Y/D185E/D98H/E176V/E277Q/G131W/G231S/I119V/I121R/I166T/I218V/L300P/L318F/N151K/N90K/P208A/P217A/Q86G/Q94H/R138H/R169H/T345S); experiment: iTopia binding assay (% binding); conditions: % binding compared to positive control melan-A26-35 A27L
Text: Avidin-coated microtiter plates containing class I monomer loaded with a so-called placeholder peptide were used to evaluate peptide binding, affinity and off-rate. The monomer-coated plates were supplied as part of the iTopia Epitope Discovery System Kit (Beckman Ciulter, Inc., San Diego, Calif., USA). Assay buffers, anti-MHC-FITC mAb and beta2-microglobulin and control peptides were also supplied with the kits.
This assay measures the ability of individual peptides to bind HLA molecules under standardized optimal binding conditions. Monomer-coated plates were first stripped, releasing the placeholder peptide and leaving only the MHC heavy chain bound to the plate. Test peptides were then introduced under optimal folding conditions, along with the anti-MRC-FITC mAb. Plates were incubated for 18hrs at 21° C. The anti-MHC-FITC mAb binds preferentially to a refolded MHC complex. Therefore, the fluorescence intensity resulted from each peptide was related to the peptide's ability to form complex with MHC molecule. Each peptide's binding was evaluated relative to the positive control peptide provided in the kit, and the results were expressed ‘% binding’.

[2] = system: target cells loaded with native PRAME425-433 peptide; experiment: In vivo cytotoxicity against native PRAME peptide coated splenocytes (CFSE); design: species or system HHD transgenic mice; conditions: plasmid prime, peptide boost
HLA-A*0201 [3] = biological target: T1, HLA-A*0201; experiment: Peptide binding using T2 cells; design: endogenous in cells; host or cells: T2 cells; conditions: T2 cells pulsed overnight at 37° C.; peptide concentration giving 50% of saturation signal; N/B printed, not defined

Compound | % binding relative to native PRAME425-433 (HLA-A*0201 [1]) | In vivo cytotoxicity against native PRAME epitope [2] | Half-maximal Binding (mM) (HLA-A*0201 [3])
Phe P1 analog: PRAME425-433 (SLLQHLIGL) analog, Phe for the Ser at the P1 position (FLLQHLIGL) | exceeded that range on the high side | capable of expanding the immunity against the native epitope | –
CC[C@H](C)[C@H](NC(=O)[C@H](CCCCN)NC(=O)[C@H](CCC(=O)O)NC(=O)[C@H](CO)NC(=O)[C@H](C)NC(=O)[C@@H](N)CC1CCCCC1)C(=O)N[C@@H](Cc1ccccc1)C(=O)N[C@@H](Cc1ccc(O)cc1)C(=O)N[C@H](C(=O)O)C(C)C [SSX2 41-49 (K41(Cha))] (H-[Cha]ASEKIFYV-OH) | – | – | N/B
CC[C@H](C)[C@H](NC(=O)[C@H](CCCCN)NC(=O)[C@H](CCC(=O)O)NC(=O)[C@H](CO)NC(=O)[C@H](Cc1cccc2ccccc12)NC(=O)[C@@H](N)CCCCN)C(=O)N[C@@H](Cc1ccccc1)C(=O)N[C@@H](Cc1ccc(O)cc1)C(=O)N[C@H](C(=O)O)C(C)C [SSX2 41-49 (A42(Nal-1)), KNal-1SEKIFYV] | – | – | N/B

Source: patent US20060057673A1, “Epitope analogs” (priority 2004, published 2006)
